Results on 56 compounds are retold here after the RepoRT retention time repository.

The data set can be described thus: RP, Restek Raptor Biphenyl, 100 × 2.1 mm, 2.7 µm, 50 °C, 0.4 mL/min, estimated dead time 0.55 min; A: water + 0.1% formic acid, pH 3; B: methanol + 0.1% formic acid, pH 3; gradient (min/%B) 0/5 1.12/5 6.41/99.5 10.01/99.5. Particulars: stereoisomer not certain.

Counter-ions that a name gives are not always drawn.

With `CC(CCC(=O)O)C1CCC2C3C(OS(=O)(=O)O)CC4CC(O)CCC4(C)C3CC(O)C12C` (stereo unspecified) [Cholic acid 7-sulfate], the LC retention time was 5.85 min.

`O=C(O)CC(O)(CC(=O)O)C(=O)O` [Citric acid]: the LC retention time is 0.743 min.

Consider `CC12CCC(=O)C=C1CCC1C2C(O)CC2(C)C(C(=O)CO)CCC12` (stereo unspecified) [Corticosterone], for which the LC retention time was 6.21 min.

On to `O=C(O)[C@H](O)Cc1ccccc1` [D-(+)-3-Phenyllactic acid], for which the LC retention time was 3.79 min.

On to `Nc1ncnc2c1ncn2C1CC(O)C(COP(=O)(O)O)O1` (stereo unspecified) [DEOXYADENOSINE MONOPHOSPHATE], for which the LC retention time was 0.818 min.

With `Nc1nc2c(ncn2C2CC(O)C(CO)O2)c(=O)[nH]1` (stereo unspecified) [DEOXYGUANOSINE], the LC retention time is 1.59 min.

With `O=c1ccn(C2CC(O)C(COP(=O)(O)O)O2)c(=O)[nH]1` (stereo unspecified) [DEOXYURIDINE-MONOPHOSPHATE], the LC retention time was 0.695 min.

Regarding `O=c1ccn(C2CC(O)C(CO)O2)c(=O)[nH]1` (stereo unspecified) [DEOXYURIDINE], the LC retention time is 1.22 min.

For the compound `CC1NC(=O)NC1CCCCCC(=O)O` (stereo unspecified) [DETHIOBIOTIN], the LC retention time is 4.21 min.

`Nc1nc2c(ncn2C2CC(O)C(COP(=O)(O)OP(=O)(O)O)O2)c(=O)[nH]1` (stereo unspecified) [DGDP]: the LC retention time was 0.695 min.

Regarding `NCCc1ccc(O)c(O)c1` [DOPAMINE], the LC retention time is 0.724 min.

On to `Cc1cn(C2CC(O)C(COP(=O)(O)OP(=O)(O)OC3OC(CO)C(O)C(O)C3O)O2)c(=O)[nH]c1=O` [DTDP-D-GLUCOSE], for which the LC retention time was 0.702 min.

With `CC(CCC(=O)O)C1CCC2C3C(=O)CC4CC(=O)CCC4(C)C3CC(=O)C12C` (stereo unspecified) [Dehydrocholic acid], the LC retention time was 6.13 min.

`CC(CCC(=O)O)C1CCC2C3CCC4CC(O)CCC4(C)C3CC(O)C12C` (stereo unspecified) [Deoxycholic acid]: the LC retention time is 6.37 min.

With `O=C(Nc1ccc(F)cc1F)c1cccnc1Oc1cccc(C(F)(F)F)c1` [Diflufenican], the LC retention time was 6.33 min.

For `CC(C)(C)C(O)C(=Cc1ccc(Cl)cc1Cl)n1cncn1` (stereo unspecified) [Diniconazole], the LC retention time is 6.05 min.

Take `CNC(=N[N+](=O)[O-])NCC1CCOC1` (stereo unspecified) [Dinotefuran]: the LC retention time is 3.16 min.

Turning to `CN(C)C(=O)Nc1ccc(Cl)c(Cl)c1` [Diuron], the LC retention time is 5.22 min.

For `CCCCCCCCC=CCCCCCCCCCCCC(=O)O` [Erucic acid], the LC retention time is 6.84 min.

Consider `Cc1cc2nc3c(=O)[nH]c(=O)nc-3n(CC(O)C(O)C(O)COP(=O)(O)OP(=O)(O)OCC3OC(n4cnc5c(N)ncnc54)C(O)C3O)c2cc1C` (stereo unspecified) [FAD], for which the LC retention time is 4.07 min.

For the compound `Nc1nc2ncc(CNc3ccc(C(=O)NC(CCC(=O)O)C(=O)O)cc3)nc2c(=O)[nH]1` (stereo unspecified) [FOLATE], the LC retention time is 3.67 min.

`CC1(c2ccc(Oc3ccccc3)cc2)OC(=O)N(Nc2ccccc2)C1=O` (stereo unspecified) [Famoxadone]: the LC retention time was 6.68 min.

As to `OC(c1ccc(Cl)cc1)(c1cncnc1)c1ccccc1Cl` (stereo unspecified) [Fenarimol], the LC retention time is 6.02 min.

For `CC1(C(=O)Nc2ccc(O)c(Cl)c2Cl)CCCCC1` [Fenhexamid], the LC retention time was 5.83 min.

As to `N#Cc1nn(-c2c(Cl)cc(C(F)(F)F)cc2Cl)c(N)c1S(=O)C(F)(F)F` (stereo unspecified) [Fipronil], the LC retention time is 5.6 min.

For `N#CCNC(=O)c1cnccc1C(F)(F)F` [Flonicamid], the LC retention time is 3.4 min.

`O=[N+]([O-])c1cc(C(F)(F)F)c(Cl)c([N+](=O)[O-])c1Nc1ncc(C(F)(F)F)cc1Cl` [Fluazinam]: the LC retention time is 6.33 min.

Take `Cc1cc(C(F)(C(F)(F)F)C(F)(F)F)ccc1NC(=O)c1cccc(I)c1C(=O)NC(C)(C)CS(C)(=O)=O` [Flubendiamide]: the LC retention time was 5.97 min.

Consider `N#Cc1c[nH]cc1-c1cccc2c1OC(F)(F)O2` [Fludioxonil], for which the LC retention time is 5.51 min.

For the compound `Cc1ccn2nc(S(=O)(=O)Nc3c(F)cccc3F)nc2n1` [Flumetsulam], the LC retention time was 4.92 min.

Take `CN(C)C(=O)Nc1cccc(C(F)(F)F)c1` [Fluometuron]: the LC retention time was 4.92 min.

For the compound `COc1cc(OC)nc(NC(=O)NS(=O)(=O)c2cc(NC=O)ccc2C(=O)N(C)C)n1` [Foramsulfron], the LC retention time was 5.76 min.

Take `O=C(Nc1ccccc1)Nc1ccnc(Cl)c1` [Forchlorfenuron]: the LC retention time was 5.17 min.

For the compound `Nc1nc2c(ncn2C2OC(CO)C(O)C2O)c(=O)[nH]1` (stereo unspecified) [GUANOSINE], the LC retention time was 1.15 min.

Take `O=C(O)CCCC(=O)O` [Glutaric acid]: the LC retention time is 1.37 min.

On to `CC(CCC(=O)NCC(=O)O)C1CCC2C3CCC4CC(O)CCC4(C)C3CC(O)C12C` (stereo unspecified) [Glycodeoxycholic acid], for which the LC retention time is 6.16 min.

`CC(CCC(=O)NCC(=O)O)C1CCC2C3CC(O)C4CC(O)CCC4(C)C3CCC12C` (stereo unspecified) [Glycohyodeoxycholic acid]: the LC retention time is 5.79 min.

With `CC(CCC(=O)NCC(=O)O)C1CCC2C3CCC4CC(O)CCC4(C)C3CCC12C` (stereo unspecified) [Glycolithocholic acid], the LC retention time is 6.37 min.

Turning to `O=C(O)CNC(=O)c1ccccc1` [HIPPURATE], the LC retention time was 3.44 min.

As to `O=C(O)Cc1cc(O)ccc1O` [HOMOGENTISATE], the LC retention time was 1.47 min.

Turning to `COc1cc(CC(=O)O)ccc1O` [HOMOVANILLATE], the LC retention time was 2.46 min.

On to `CC(C)(C)N(NC(=O)c1ccc(Cl)cc1)C(=O)c1ccccc1` [Halofenozide], for which the LC retention time was 5.6 min.

Turning to `COC(=O)c1c(Cl)nn(C)c1S(=O)(=O)NC(=O)Nc1nc(OC)cc(OC)n1` [Halosulfuron-methyl], the LC retention time was 6.42 min.

Turning to `CCCCCCCCCCCCCCCCCCCCC(=O)O` [Heneicosanoic acid], the LC retention time was 6.82 min.

As for `CCCCCCCCCCCCCCCCCCCCCCCCCCC(=O)O` [Heptacosanoic Acid], the LC retention time was 7.05 min.

With `CCCCCCCCCCCCCCCCC(=O)O` [Heptadecanoic acid], the LC retention time is 6.6 min.

Consider `CCCCC(O)(Cn1cncn1)c1ccc(Cl)cc1Cl` (stereo unspecified) [Hexaconazole], for which the LC retention time is 5.98 min.

With `NC(=O)Cc1c[nH]c2ccccc12` [INDOLE-3-ACETAMIDE], the LC retention time was 3.75 min.

Turning to `OCCc1c[nH]c2ccccc12` [INDOLE-3-ETHANOL], the LC retention time was 4.06 min.

As for `O=S(=O)(O)Oc1c[nH]c2ccccc12` [INDOXYL SULFATE], the LC retention time was 2.52 min.

On to `O=C(O)CCCc1c[nH]c2ccccc12` [Indole-3-butyric acid], for which the LC retention time is 4.97 min.

For the compound `O=Cc1c[nH]c2ccccc12` [Indole-3-carboxaldehyde], the LC retention time is 4.24 min.

For the compound `O=C(O)c1c[nH]c2ccccc12` [Indole-3-carboxylic acid], the LC retention time is 4.08 min.

As for `O=C(O)CCc1c[nH]c2ccccc12` [Indole-3-propionic acid], the LC retention time is 4.66 min.

Turning to `CC(C)C1CCC(Cc2ccc(Cl)cc2)C1(O)Cn1cncn1` (stereo unspecified) [Ipconazole], the LC retention time was 6.21 min.

On to `CC(C)CCCCCCCCCCCCC(=O)O` [Isopalmitic acid], for which the LC retention time is 6.54 min.
